Measurements taken from article PMC3626541, “A first in human, safety, pharmacokinetics, and clinical activity phase I study of once weekly administration of the Hsp90 inhibitor ganetespib (STA-9090) in patients with solid malignancies” (BMC Cancer, 2013).
Entries after “also recorded” stand apart in the source; their conditions may differ.

How the values were obtained:
[1] = test system: patients with advanced solid tumors; assay: Dose escalation: dose-limiting toxicity, MTD and RP2D; assay type: in vivo, human
Experimental: Ganetespib was administered over a 1-hour infusion, once weekly for 3 weeks of a 4-week cycle. Intra-patient dose escalation was allowed to dose levels shown to be safe and tolerable. The starting dose (7 mg/m^2) was selected based on a conservative estimate using the highest non-severely toxic dose established in a once-weekly, 4-week repeat dose study in cynomolgus monkeys. […] Each cohort consisted of 3 patients, with expansion to 6 patients if 1 of the 3 initial patients experienced a DLT, which was defined as: Grade 4 thrombocytopenia (or Grade 3 with hemorrhage); Grade 4 neutropenia lasting > 7 days (or Grade 3 with fever); Grade 4 anemia; ≥ Grade 3 non-hematologic toxicity (except alopecia); and ≥ Grade 3 hypersensitivity despite premedication. Doses were escalated after all patients in the preceding dose cohort had completed Cycle 1. […] The RP2D was defined as the dose of ganetespib below which 2 of 3 or 2 of 6 patients experienced a DLT.

[2] = test system: patients with advanced solid tumors; design: method as in unpublished observation; conditions: over 400 patients treated in other studies; ref unpublished observation; cited from earlier work

CC(C)c1cc(-c2n[nH]c(=O)n2-c2ccc3c(ccn3C)c2)c(O)cc1O [Ganetespib, 5-[2,4-dihydroxy-5-(1 methyl-ethyl)phenyl]-2,4 dihydro-4-(1-methyl-1H indol-5 yl)-3H-1,2,4 triazole-3-one]
DLT: Grade 3 elevated serum amylase ([1]; 150 mg/m^2 dose level): one Grade 3 amylase elevation; also recorded: one patient | DLT: Grade 3 and 4 asthenia ([1]; 259 mg/m^2 dose level): one Grade 3 and one Grade 4 asthenia; also recorded: two patients | DLT: Grade 3 diarrhea ([1]; 259 mg/m^2 dose level, expanded to 6 patients): one Grade 3 diarrhea; also recorded: one additional patient | Patients experiencing DLT ([1]; 7–114 mg/m^2 cohort): None of the patients | Maximum tolerated dose (MTD) ([1]; 1 hour IV infusion once weekly for 3 weeks of a 4-week cycle): 216 mg/m^2 | Recommended phase II dose (RP2D) ([1]; human, in vivo, iv, 4 weeks): 200 mg/m^2 | Grade 3 fatigue (would have been dose-limiting in dose-escalation phase) ([1]; in vivo): One patient | Incidence of treatment related visual changes [2]: < 3%
